What was measured:
[1] = test system: phospho-myosin light chains (ppMlc, Thr18/Ser19) in A7R5 cells; test: A7R5 in-cell ELISA, phospho-myosin light chain; type: cell-based, rat; conditions: for IC50 / inhibition at 10 µM / inhibition at 1 µM: Rattus norvegicus, A7R5 cells; for IC50: 1.5 h, 90 min, read-out: pMLC IC50 A7R5; for inhibition at 10 µM / inhibition at 1 µM: read-out: pMLC % inh A7R5
Procedure: Determination of compounds ROCK inhibitory activity in A7R5 cells: rat aortic smooth muscle cell line A7R5 cells were maintained and treated in DMEM medium with 10% of fetal bovine serum. Cells were seeded with density of 5,000 cells/well in 96-well plates for 24 hours and subsequently treated 90 min with testing compounds. Cells were then fixed and processed according to the In-Cell ELISA Colorimetric Detection Kit manual (Thermo Scientific). Cellular phospho-myosin light chains (ppMlc, Thr18/Ser19) levels were determined after treatments of DMSO control or test compounds using the In-Cell ELISA kit. The percent inhibition rate was calculated by applying the data obtained with 1 μM (or 10 μM) compound treatment to the formula, [1-(compound/DMSO)]×100%. ppMlc data obtained with 9 points 2-fold serial dilution of compounds were applied to the nonlinear regression curve fit function of the GraphPad Prism software to calculate the In cell IC50s.
A7R5 cells were treated with 9 points 2 fold serial dilution of compounds and ppMlc (T18/S19) levels were determined in order to calculate cellular IC50s of the compounds.
Two steps of measurements were adopted for pMLC/A7R5 IC50. Percent inhibition rates were calculated with a single dose (1 μM or 10 μM) compounds treatment to screen for active compounds and then cellular IC50s were measured only in compounds that have over 50% of inhibition rates.

[2] = target: T1, recombinant ROCK2 (amino acids 1-552) (Homo sapiens, UniProt O75116); test: Z'-lyte kinase assay, ROCK2; type: biochemical; conditions: for inhibition at 3 µM / inhibition at 0.5 µM / inhibition at 1 µM: read-out: ROCK2 % inh
T1 construct: ROCK2 (amino acids 1-552) proteins were purchased from ThermoFisher Scientific; purchased ThermoFisher Scientific
T1 sequence (O75116 1-552): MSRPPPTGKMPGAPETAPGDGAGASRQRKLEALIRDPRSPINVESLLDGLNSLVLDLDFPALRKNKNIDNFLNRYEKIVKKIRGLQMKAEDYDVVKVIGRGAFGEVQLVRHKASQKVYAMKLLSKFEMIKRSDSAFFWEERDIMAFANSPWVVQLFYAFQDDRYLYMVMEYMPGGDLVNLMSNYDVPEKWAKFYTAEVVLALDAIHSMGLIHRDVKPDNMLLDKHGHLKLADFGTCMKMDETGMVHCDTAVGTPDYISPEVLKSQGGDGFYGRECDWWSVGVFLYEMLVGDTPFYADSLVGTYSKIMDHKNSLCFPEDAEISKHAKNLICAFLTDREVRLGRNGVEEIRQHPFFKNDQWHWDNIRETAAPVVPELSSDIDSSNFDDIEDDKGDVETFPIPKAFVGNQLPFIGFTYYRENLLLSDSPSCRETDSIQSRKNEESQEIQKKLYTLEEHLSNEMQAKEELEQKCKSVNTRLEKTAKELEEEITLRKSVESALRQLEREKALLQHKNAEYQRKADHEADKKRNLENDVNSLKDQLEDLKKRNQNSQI
Procedure: (§1) Determination of compounds ROCK inhibitory activity in vitro (Z'lyte assay): recombinant ROCK1 (amino acids 1-535) and ROCK2 (amino acids 1-552) proteins were purchased from ThermoFisher Scientific. Compounds activities were measured by Z′-lyte kinase kit (ThermoFisher Scientific) and IC50s were calculated.
(§2) Table 2, below, provides in vitro and cellular inhibition of ROCKs by compounds of the invention. Compounds activities were measured by Z′-lyte kinase kit (ThermoFisher Scientific). […] IC50s were calculated using the GraphPad Prism software with kinase activities data that were collected from points 9 serial dilution of compounds treatment. The ROCK inhibition in A7R5 cells and NIH3T3 (Acta2-Luc) cells was performed as described above.

[3] = target: T2, recombinant ROCK1 (amino acids 1-535) (Homo sapiens, UniProt Q13464); test: Z'-lyte kinase assay, ROCK1; type: biochemical; conditions: for inhibition at 3 µM / inhibition at 0.5 µM: read-out: ROCK1 % inh
T2 construct: recombinant ROCK1 (amino acids 1-535) and ROCK2; purchased ThermoFisher Scientific
T2 sequence (Q13464 1-535): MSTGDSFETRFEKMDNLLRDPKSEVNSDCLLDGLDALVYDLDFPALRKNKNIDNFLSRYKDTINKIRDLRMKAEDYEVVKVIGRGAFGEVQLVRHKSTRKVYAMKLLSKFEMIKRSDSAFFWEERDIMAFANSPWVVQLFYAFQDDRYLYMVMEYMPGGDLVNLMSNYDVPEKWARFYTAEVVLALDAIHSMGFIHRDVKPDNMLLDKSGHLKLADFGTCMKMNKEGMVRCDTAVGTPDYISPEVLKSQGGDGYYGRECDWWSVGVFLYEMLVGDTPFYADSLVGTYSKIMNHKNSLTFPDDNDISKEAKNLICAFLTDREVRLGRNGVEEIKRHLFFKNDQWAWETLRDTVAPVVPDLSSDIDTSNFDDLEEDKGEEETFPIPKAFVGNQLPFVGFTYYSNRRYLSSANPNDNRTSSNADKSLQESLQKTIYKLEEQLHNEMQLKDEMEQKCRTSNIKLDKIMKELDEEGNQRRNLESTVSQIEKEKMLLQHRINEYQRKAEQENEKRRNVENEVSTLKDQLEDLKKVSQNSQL
Procedure: as §1, §2

| Compound | IC50 [1] | IC50 [2] | inhibition at 3 µM [2] | IC50 [3] | inhibition at 3 µM [3] | other results |
| --- | --- | --- | --- | --- | --- | --- |
| NC(C(=O)Nc1ccc2[nH]ncc2c1)c1cccc(F)c1 (stereo not drawn) [Comp6, reference compound] | 6990 nM | 41.8 nM | 98.8% | 41.3 nM | 99% | – |
| CNC(C(=O)Nc1ccc2[nH]ncc2c1)c1cccnc1 (stereo not drawn) [Example 39, N-(1H-indazol-5-yl)-2-(methylamino)-2-(pyridin-3-yl)acetamide] | 4200 nM | 213 nM | – | 250 nM | – | – |
| CC(C)NC(C(=O)Nc1ccc2[nH]ncc2c1)c1ccccc1 (stereo not drawn) [Example 22, N-(1H-indazol-5-yl)-2-(isopropylamino)-2-phenylacetamide] | 1800 nM | – | 96.7% | – | 94.3% | – |
| COc1cccc(C(NCCN(C)C)C(=O)Nc2ccc3[nH]ncc3c2)c1 (stereo not drawn) [Example 34, 2-((2-(dimethylamino)ethyl)amino)-N-(1H-indazol-5-yl)-2-(3-methoxyphenyl)acetamide] | – | 438 nM | – | – | – | inhibition at 10 µM [1]: 49% |
| CCNC(C(=O)Nc1ccc2[nH]ncc2c1)c1cccc(C)c1 (stereo not drawn) [Example 49, 2-(ethylamino)-N-(1H-indazol-5-yl)-2-(m-tolyl)acetamide] | – | 87 nM | – | – | – | inhibition at 0.5 µM [2]: 76%; inhibition at 0.5 µM [3]: 88% |
| COc1ccc(C(NC2CC2)C(=O)Nc2ccc3[nH]ncc3c2)cc1 (stereo not drawn) [Example 27, 2-(cyclopropylamino)-N-(1H-indazol-5-yl)-2-(4-methoxyphenyl)acetamide] | 2980 nM | 66 nM | – | 79 nM | – | – |
| CCNC(C(=O)Nc1ccc2[nH]ncc2c1)c1ccc(F)cc1 (stereo not drawn) [Example 23, 2-(ethylamino)-2-(4-fluorophenyl)-N-(1H-indazol-5-yl)acetamide] | 1060 nM | 43 nM | 95.3% | 495 nM | 94.3% | – |
| CCNC(C(=O)Nc1ccc2[nH]ncc2c1)c1ccccc1 (stereo not drawn) [Example 21, 2-(ethylamino)-N-(1H-indazol-5-yl)-2-phenylacetamide] | 2390 nM | – | 95.8% | – | 91.5% | – |
| CNC(C(=O)Nc1ccc2[nH]ncc2c1)c1ccc(F)cc1 (stereo not drawn) [Example 19, 2-(4-fluorophenyl)-N-(1H-indazol-5-yl)-2-(methylamino)acetamide] | 1600 nM | 160 nM | 96.6% | 173 nM | 21.4% | – |
| COc1ccc(C(NC(C)(C)C)C(=O)Nc2ccc3[nH]ncc3c2)cc1 (stereo not drawn) [Example 36, 2-(tert-butylamino)-N-(1H-indazol-5-yl)-2-(4-methoxyphenyl)acetamide] | 766 nM | 9.9 nM | 98.8% | 24.7 nM | 99% | – |
| O=C(Nc1ccc2[nH]ncc2c1)C1Cc2ccccc2CN1 (stereo not drawn) [Example 4, N-(1H-indazol-5-yl)-1,2,3,4-tetrahydroisoquinoline-3-carboxamide] | – | > 1000 nM | – | > 1000 nM | – | inhibition at 10 µM [1]: 18% |
| O=C(Nc1ccc2[nH]ncc2c1)C1NCCc2ccccc21 (stereo not drawn) [Example 5, N-(1H-indazol-5-yl)-1,2,3,4-tetrahydroisoquinoline-1-carboxamide] | 35800 nM | 77 nM | – | 38 nM | – | – |
| CNC(C(=O)Nc1ccc2[nH]ncc2c1)c1ccccn1 (stereo not drawn) [Example 40, N-(1H-indazol-5-yl)-2-(methylamino)-2-(pyridin-2-yl)acetamide] | – | 453 nM | – | 143 nM | – | inhibition at 10 µM [1]: 37% |
| O=C(Nc1ccc2[nH]ncc2c1)C1CCCCN1 (stereo not drawn) [Example 13, N-(1H-indazol-5-yl)piperidine-2-carboxamide] | – | – | – | – | – | inhibition at 1 µM [1]: 11% |
| O=C(Nc1ccc2[nH]ncc2c1)C1CNc2ccccc2C1 (stereo not drawn) [Example 3, N-(1H-indazol-5-yl)-1,2,3,4-tetrahydroquinoline-3-carboxamide] | – | – | 0% | – | 0% | inhibition at 1 µM [1]: 25% |
| O=C(Nc1ccc2[nH]ncc2c1)C1CNCc2ccccc21 (stereo not drawn) [Example 8, N-(1H-indazol-5-yl)-1,2,3,4-tetrahydroisoquinoline-4-carboxamide] | 2620 nM | – | – | – | – | inhibition at 1 µM [2]: 76.7% |
| CCOc1ccc(C(NC)C(=O)Nc2ccc3[nH]ncc3c2)cc1 (stereo not drawn) [Example 43, 2-(4-ethoxyphenyl)-N-(1H-indazol-5-yl)-2-(methylamino)acetamide] | – | 73 nM | – | – | – | inhibition at 10 µM [1]: 4%; inhibition at 1 µM [2]: 98% |

| Compound | IC50 [1] | IC50 [2] | inhibition at 3 µM [2] | IC50 [3] | inhibition at 3 µM [3] | other results |
| --- | --- | --- | --- | --- | --- | --- |
| CNC(C(=O)Nc1ccc2[nH]ncc2c1)c1ccc(F)c(OC)c1 (stereo not drawn) [Example 48, 2-(4-fluoro-3-methoxyphenyl)-N-(1H-indazol-5-yl)-2-(methylamino)acetamide] | – | 71 nM | – | – | – | inhibition at 0.5 µM [2]: 76%; inhibition at 0.5 µM [3]: 87% |
| NC(C(=O)Nc1ccc2[nH]ncc2c1)c1ccc(Cl)cc1 (stereo not drawn) [Comp2, reference compound] | 4410 nM | – | 97.5% | – | 92.2% | – |
| CNC(C(=O)Nc1ccc2[nH]ncc2c1)c1ccc(-c2ccc(OC)cc2)cc1 (stereo not drawn) [Example 45, N-(1H-indazol-5-yl)-2-(4′-methoxy-[1,1′-biphenyl]-4-yl)-2-(methylamino)acetamide] | – | – | – | – | – | inhibition at 10 µM [1]: 4%; inhibition at 1 µM [2]: 22% |
| CC(C)NC(C(=O)Nc1ccc2[nH]ncc2c1)c1ccc(Cl)cc1 (stereo not drawn) [Example 18, 2-(4-chlorophenyl)-N-(1H-indazol-5-yl)-2-(isopropylamino)acetamide] | 2510 nM | – | 94.1% | – | 89.6% | cellular ROCK inhibition compared with Comparative Example 2 ([1]; phosphorylation of the ROCK target pMLC in A7R5 cells): enhanced |
| Cc1ccc(C(N)C(=O)Nc2ccc3[nH]ncc3c2)cc1 (stereo not drawn) [Comp5, reference compound] | – | 33 nM | – | 1310 nM | 99% | inhibition at 1 µM [2]: 96.2% |
| COCCNC(C(=O)Nc1ccc2[nH]ncc2c1)c1cccc(OC)c1 (stereo not drawn) [Example 46, N-(1H-indazol-5-yl)-2-((2-methoxyethyl)amino)-2-(3-methoxyphenyl)acetamide] | – | – | – | – | – | inhibition at 10 µM [1]: 27%; inhibition at 1 µM [2]: 67% |
| NC(C(=O)Nc1ccc2[nH]ncc2c1)c1ccccc1 (stereo not drawn) [Comp3, reference compound] | 10900 nM | – | 97.4% | – | 91.5% | – |
| CNC(C(=O)N(CCN(C)C)c1ccc2[nH]ncc2c1)c1cccc(OC)c1 (stereo not drawn) [Example 7, N-(2-(dimethylamino)ethyl)-N-(1H-indazol-5-yl)-2-(3-methoxyphenyl)-2-(methylamino)acetamide] | – | 1630 nM | – | – | – | inhibition at 10 µM [1]: 2%; inhibition at 1 µM [2]: 11%; inhibition at 0.5 µM [3]: 16% |
| CNC(C(=O)Nc1ccc2[nH]ncc2c1)c1ccc(OC(C)C)cc1 (stereo not drawn) [Example 44, N-(1H-indazol-5-yl)-2-(4-isopropoxyphenyl)-2-(methylamino)acetamide] | – | 455 nM | – | – | – | inhibition at 10 µM [1]: 42% |
| CC1NC(C(=O)Nc2ccc3[nH]ncc3c2)c2ccccc21 (stereo not drawn) [Example 9, N-(1H-indazol-5-yl)-3-methylisoindoline-1-carboxamide] | – | – | – | – | – | inhibition at 1 µM [1]: 4% |
| O=C(Nc1ccc2[nH]ncc2c1)C1CCCN1 (stereo not drawn) [Example 10, N-(1H-indazol-5-yl)pyrrolidine-2-carboxamide] | – | – | – | – | – | inhibition at 1 µM [1]: 1% |
| CNC(C(=O)Nc1ccc2[nH]ncc2c1)c1cccc(OC(F)(F)F)c1 (stereo not drawn) [Example 50, N-(1H-indazol-5-yl)-2-(methylamino)-2-(3-(trifluoromethoxy)-phenyl)acetamide] | – | 21 nM | – | – | – | inhibition at 0.5 µM [2]: 93%; inhibition at 0.5 µM [3]: 93% |
| O=C(Nc1ccc2[nH]ncc2c1)[C@@H]1CC[C@H](c2ccccc2)N1 [Example 12, (2S,5R)-N-(1H-indazol-5-yl)-5-phenylpyrrolidine-2-carboxamide] | – | – | – | – | – | inhibition at 1 µM [1]: 1% |
| O=C(Nc1ccc2[nH]ncc2c1)C1CCNC1 (stereo not drawn) [Example 11, N-(1H-indazol-5-yl)pyrrolidine-3-carboxamide] | – | – | – | – | – | inhibition at 1 µM [1]: 1% |
| CNC(C(=O)Nc1ccc2[nH]ncc2c1)c1ccc(-c2ccccc2F)cc1 (stereo not drawn) [Example 33, 2-(2′-fluoro-[1,1′-biphenyl]-4-yl)-N-(1H-indazol-5-yl)-2-(methylamino)acetamide] | – | – | – | – | – | inhibition at 10 µM [1]: 48%; inhibition at 1 µM [2]: 66.5% |
| CNC(C(=O)Nc1ccc2[nH]ncc2c1)c1ccccc1OC (stereo not drawn) [Example 35, N-(1H-indazol-5-yl)-2-(2-methoxyphenyl)-2-(methylamino)acetamide] | – | – | – | – | – | inhibition at 1 µM [1]: 16%; inhibition at 1 µM [2]: 71% |
